{"source": "paper PMC6332334", "about": "“3-H-[1,2]Dithiole as a New Anti-Trypanosoma cruzi Chemotype: Biological and Mechanism of Action Studies” (Molecules, 2015)", "key": {"[1]": {"test_system": "J774.1 murine macrophages", "test": "Unspecific in vitro cytotoxicity of mammalian cells (MTT)", "type": "cell-based", "settings": "Mus musculus, 48 h exposure, read-out: IC50 against Macrophages", "experimental": "To evaluate the anti-trypanosomal activity of the synthesized 3H-[1,2]dithioles we used T. cruzi, Tulahuen 2 strain (discrete typing unit, DTU, TcVI [18]) in the epimastigote form. […] To establish the selectivity of the compounds against the parasite, unspecific cytotoxicity against mammalian cells (J774.1 murine macrophages) was studied for the most relevant derivatives. The selectivity indexes (SI) were also determined (Table 1).\nJ774.1 murine macrophage cells (ATCC, Manassas, VA, USA) were grown in DMEM culture milieu containing 4 mM L-glutamine and supplemented with 10% heat-inactivated fetal calf serum. […] Afterwards, cells were exposed for 48 h to the compounds (25–400 μM) or vehicle for control (0.4% DMSO), and additional controls (cells in medium) were used in each test. Cell viability was then assessed by measuring the mitochondria-dependent reduction of MTT (3-(4,5-dimethylthiazol-2-yl)-2,5-diphenyltetrazolium bromide) to formazan. For this purpose, MTT in sterile PBS (0.2% glucose) pH 7.4 was added to the macrophages to achieve a final concentration of 0.1 mg/mL and the cells were incubated at 37 °C for 3 h. After removing the medium, formazan crystals were dissolved in 180 μL of DMSO and 20 μL of MTT buffer (0.1 M glycine, 0.1 M NaCl, 0.5 mM EDTA, pH 10.5) and the absorbance at 560 nm was measured. The IC50 was defined as the drug concentration at which 50% of the cells were viable, relative to the control (no drug added), and was determined by analysis using OriginLab8.5® sigmoidal regression (% of viable cells vs. logarithm of the compound concentration). Samples were performed in triplicate."}, "[2]": {"target": "T1, Trypanosoma cruzi triosephosphate isomerase (TcTIM) (Trypanosoma cruzi, UniProt P52270)", "T1 construct": "made in house; host or cells: Escherichia coli", "T1 sequence (P52270 whole entry)": "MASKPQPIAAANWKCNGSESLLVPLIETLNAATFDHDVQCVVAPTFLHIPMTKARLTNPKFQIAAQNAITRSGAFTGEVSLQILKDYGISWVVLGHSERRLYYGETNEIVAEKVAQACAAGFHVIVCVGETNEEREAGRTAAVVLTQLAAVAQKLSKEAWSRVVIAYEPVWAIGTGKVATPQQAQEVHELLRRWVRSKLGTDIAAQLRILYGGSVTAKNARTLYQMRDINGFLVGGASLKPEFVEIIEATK", "test": "Inhibition of enzymatic activity of TcTIM", "type": "biochemical", "experimental": "In order to investigate if the 3H-[1,2]dithioles inhibit TcTIM, we initially tested the inhibitory capacity of the compounds at a concentration of 200 μM and then at 25 μM.\nExpression and purification of protein: TcTIM was expressed in Escherichia coli and purified as described in the literature. After purification, the enzyme, dissolved in 100 mM triethanolamine, 10 mM EDTA and 1 mM dithiothreitol (pH 8), was precipitated with ammonium sulfate (75% saturation) and stored at 4 °C. Before use, extensive dialysis against 100 mM triethanolamine/10 mM EDTA (pH 7.4) was performed. Protein concentration was determined by absorbance at 280 nm (ε = 36,440 M^−1·cm^−1).\nEnzymatic activity assays. Enzymatic activity was determined following the conversion of glyceraldehyde 3-phosphate into dihydroxyacetone phosphate. The decrease in absorbance at 340 nm was followed in a multicell Cary spectrophotometer at 25 °C. The reaction mixture (1 mL, pH 7.4) contained 100 mM triethanolamine, 10 mM EDTA, 0.2 mM NADH, 1 mM glyceraldehyde 3-phosphate, and 0.9 units of α-glycerol phosphate dehydrogenase. The reaction was initiated by addition of 5 ng/mL of the TcTIM.\nFor inactivation studies, TcTIM was incubated at a concentration of 5 mg/mL in a buffer containing 100 mM triethanolamine, 10 mM EDTA, pH 7.4 and 10% of DMSO at 36 °C. The mixture also contained the compounds at the indicated concentrations. Compounds were dissolved in DMSO. After 2 h, […] was withdrawn and added to 1 mL of reaction mixture for the activity assay. None of the molecules tested here affected the activity of α-glycerol phosphate dehydrogenase, the enzyme used for trapping the product.\nThe IC50 value was taken as the concentration of drug needed to reduce the enzymatic activity to 50%. The experiments were performed in triplicate."}}}
{"smiles": "CC(=O)COc1ccc(C2=C/C(=C(\\SCC(C)=O)C(C)=O)SS2)cc1", "note": "[Derivative 2]", "values": [{"measurement": "IC50", "setting": "[1]", "result": "24 ± 1", "unit": "µM"}, {"measurement": "inhibition at 25 µM", "setting": "[2]; percentage of enzymatic inhibition at 25 μM, read-out: TcTIM % Inhib25", "result": "48 ± 4", "unit": "%"}, {"measurement": "inhibition at 200 µM", "setting": "[2]; percentage of enzymatic inhibition at 200 μM, read-out: TcTIM % Inhib200", "result": 72, "unit": "%"}]}
